The values that follow come from article PMC3480796 (Indian Journal of Pharmacology, 2012).

The assay has as its target cystic fibrosis transmembrane conductance regulator (CFTR) (Homo sapiens, UniProt P13569). The assay is described as follows: apical chloride current. In kind it is cell-based.

Chain of cystic fibrosis transmembrane conductance regulator (CFTR) (P13569 whole entry): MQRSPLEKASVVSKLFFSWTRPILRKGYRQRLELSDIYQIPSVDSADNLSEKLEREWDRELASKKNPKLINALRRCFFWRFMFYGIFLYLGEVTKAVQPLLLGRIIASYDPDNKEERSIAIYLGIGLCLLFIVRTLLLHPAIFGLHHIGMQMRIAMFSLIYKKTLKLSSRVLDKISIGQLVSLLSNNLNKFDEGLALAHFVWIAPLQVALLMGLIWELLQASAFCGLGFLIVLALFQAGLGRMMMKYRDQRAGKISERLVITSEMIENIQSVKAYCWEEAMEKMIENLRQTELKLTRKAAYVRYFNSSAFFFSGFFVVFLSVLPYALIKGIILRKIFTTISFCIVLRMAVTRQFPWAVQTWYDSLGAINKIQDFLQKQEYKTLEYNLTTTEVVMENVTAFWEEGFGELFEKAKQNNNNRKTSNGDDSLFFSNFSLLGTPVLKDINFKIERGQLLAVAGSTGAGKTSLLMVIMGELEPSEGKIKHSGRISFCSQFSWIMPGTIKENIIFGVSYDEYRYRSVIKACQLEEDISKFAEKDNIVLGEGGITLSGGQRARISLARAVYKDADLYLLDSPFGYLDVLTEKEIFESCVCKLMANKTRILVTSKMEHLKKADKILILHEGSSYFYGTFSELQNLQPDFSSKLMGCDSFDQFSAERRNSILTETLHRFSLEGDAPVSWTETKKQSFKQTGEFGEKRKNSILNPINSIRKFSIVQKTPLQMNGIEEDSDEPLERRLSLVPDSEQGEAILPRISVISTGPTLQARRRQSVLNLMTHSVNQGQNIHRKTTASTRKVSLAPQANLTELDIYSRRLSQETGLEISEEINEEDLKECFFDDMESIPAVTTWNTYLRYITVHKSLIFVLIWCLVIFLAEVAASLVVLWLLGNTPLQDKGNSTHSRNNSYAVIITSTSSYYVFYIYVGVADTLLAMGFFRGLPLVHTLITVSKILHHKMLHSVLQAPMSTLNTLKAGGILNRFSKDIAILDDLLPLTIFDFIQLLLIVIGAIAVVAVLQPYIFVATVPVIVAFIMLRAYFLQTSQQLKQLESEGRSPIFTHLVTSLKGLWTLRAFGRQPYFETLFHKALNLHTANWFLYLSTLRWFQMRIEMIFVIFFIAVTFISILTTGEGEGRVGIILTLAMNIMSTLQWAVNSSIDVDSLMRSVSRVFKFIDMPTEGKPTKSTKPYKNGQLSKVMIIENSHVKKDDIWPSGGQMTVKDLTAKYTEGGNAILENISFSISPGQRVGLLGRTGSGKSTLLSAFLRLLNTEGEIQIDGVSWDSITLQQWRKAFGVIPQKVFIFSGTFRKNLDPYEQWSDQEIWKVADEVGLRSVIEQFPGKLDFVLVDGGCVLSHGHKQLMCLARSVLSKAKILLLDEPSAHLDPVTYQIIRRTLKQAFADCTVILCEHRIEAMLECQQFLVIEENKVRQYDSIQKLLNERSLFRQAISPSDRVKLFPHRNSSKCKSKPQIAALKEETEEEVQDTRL

Usually IC50 stands for the midpoint of a concentration-inhibition curve. Higher therefore signals weaker potency. Regarding `CCOC(=O)CSc1nc2ccccc2c(=O)n1-c1ccccc1C` [DQA, ethyl 2-(4-oxo-3-o-tolyl-3,4-dihydroquinazolin-2-ylthio)acetate], the IC50 is approximately 20 µM.
